The values that follow are results of earlier work, collected in US12176074B2, “Compound function prediction method based on neural network and connectivity map algorithm” (BEIJING GIGACEUTICALS TECH. CO. LTD, priority 2021, dated 2024).

The data set deals with novel coronavirus (SARS-CoV-2). The conditions noted are these: specific data in Chinese patent application 202010309486.2; read-out: EC50, effect for fighting against the novel coronavirus.

pEC50: −log10 of the molar value.

Turning to `O=C1C[C@@H](c2ccc(O[C@@H]3O[C@H](CO)[C@@H](O)[C@H](O)[C@H]3O)cc2)Oc2cc(O)ccc21` [liquiritin], the negative logarithm of the EC50 (pEC50) is 5.62.

For orientation: pEC50 means the negative decadic logarithm of the EC50, by convention in mol/L.
